{"source": "patent US20060286237A1", "about": "“Use of divanillin as a flavouring agent” (priority 2003, published 2006)", "key": {"[1]": {"test": "Taste threshold value determination"}, "[2]": {"settings": "as described in JP 07-179853 A2; cited from earlier work"}, "[3]": {"test": "Sensory investigation of the taste impression of divanillin"}}, "data": [{"smiles": "COc1cc(C=O)cc(-c2cc(C=O)cc(OC)c2O)c1O", "note": "[divanillin, 6,6′-dihydroxy-5,5′-dimethoxy-[1,1′-biphenyl]-3,3′-dicarboxaldehyde]", "values": [{"measurement": "taste threshold value", "setting": "[1]", "result": "below 1 ppm"}, {"measurement": "odour and taste description", "setting": "[2]", "result": "odourless and tasteless"}, {"measurement": "taste impression at higher concentration", "setting": "[3]; higher concentration values preferred according to JP 07-179853 A2 (0.001 to 5 wt. %)", "result": "diminishes in favour of a vanilla-like individual taste"}, {"measurement": "taste impression", "setting": "[3]; own investigations", "result": "pleasant, adherent and rich taste impression of creaminess, milk fattiness, butteriness and sweetness"}]}]}
